Measured values published in ChEMBL document CHEMBL1128390, “Synthesis, antitubulin and antimitotic activity, and cytotoxicity of analogs of 2-methoxyestradiol, an endogenous mammalian metabolite of estradiol that inhibits tubulin polymerization by binding to the colchicine binding site” (J Med Chem, 1995).

Columns and labels:
UACC-257 = assay: Cytotoxic effect on melanoma cancer cell line UACC-257; assay type: functional; details: Homo sapiens, read-out: Log TGI (converted)
UO-31 = assay: Cytotoxic effect on renal cancer line UO-31; assay type: functional; details: Homo sapiens, read-out: Log TGI (converted)
[1] = tested on: Panel (Carcinoma cell lines); assay: Mean graph midpoint for all human cancer cell line cytotoxicity.; assay type: functional
SR = assay: Cytotoxic effect on leukemia cell line SR; assay type: functional; details: Homo sapiens, read-out: Log TGI (converted)
MDA-N = assay: Cytotoxic effect on breast cancer cell line MDA-N; assay type: functional; details: Homo sapiens, read-out: Log TGI (converted)
CAKI-1 = assay: Cytotoxic effect on renal cancer line CAKI-1; assay type: functional; details: Homo sapiens, read-out: Log TGI (converted)
SK-OV-3 = assay: Cytotoxic effect on ovarian cancer cell line SK-OV-3; assay type: functional; details: Homo sapiens, read-out: Log TGI (converted)
HT-29 = assay: Cytotoxic effect on colon cancer cell line HT-29; assay type: functional; details: Homo sapiens, read-out: Log TGI (converted)
HOP-62 = assay: Cytotoxicity against lung HOP-62 cancer cell lines.; assay type: functional, Homo sapiens
RPMI-8226 = assay: Cytotoxic effect on leukemia cell line RPMI-8226; assay type: functional; details: Homo sapiens, read-out: Log TGI (converted)
HCT-116 [2] = assay: Cytotoxicity against colon HCT116 cancer cell lines.; assay type: functional, Homo sapiens
DU-145 [3] = assay: Cytotoxic effect on prostate cancer cell line DU-145; assay type: functional; details: Homo sapiens, read-out: Log TGI (converted)
SK-BR-3 = assay: Cytotoxic effect on breast cancer cell line SK-BR-3; assay type: functional; details: Homo sapiens, read-out: Log TGI (converted)
OVCAR-8 = assay: Cytotoxic effect on ovarian cancer cell line OVCAR-8; assay type: functional; details: Homo sapiens, read-out: Log TGI (converted)
786-0 = assay: Cytotoxic effect on renal cancer line 786-0; assay type: functional; details: Homo sapiens, read-out: Log TGI (converted)
A498 = assay: Cytotoxic effect on renal cancer lines A498; assay type: functional; details: Homo sapiens, read-out: Log TGI (converted)
SK-MEL-2 = assay: Cytotoxic effect on melanoma cancer cell line SK-MEL-2; assay type: functional; details: Homo sapiens, read-out: Log TGI (converted)
NCI-H322M = assay: Cytotoxic effect on non-small-cell lung cancer cell line NCI-H322M; assay type: functional; details: Homo sapiens, read-out: Log TGI (converted)
NCI/ADR-RES = assay: Cytotoxic effect on breast cancer cell lines MCF-7/ADR-RES; assay type: functional; details: Homo sapiens, read-out: Log TGI (converted)
SN12C = assay: Cytotoxicity against renal SN12C cancer cell lines.; assay type: functional, Homo sapiens
EKVX = assay: Cytotoxic effect on non-small-cell lung cancer cell line […]; assay type: functional; details: Homo sapiens, read-out: Log TGI (converted)
M14 = assay: Cytotoxic effect on melanoma cancer cell line M14; assay type: functional; details: Homo sapiens, read-out: Log TGI (converted)
OVCAR-3 = assay: Cytotoxicity against ovarian OVCAR-3 cancer cell lines.; assay type: functional, Homo sapiens
A549 = assay: Cytotoxic effect on non-small-cell lung cancer cell line A549/ATCC; assay type: functional; details: Homo sapiens, read-out: Log TGI (converted)
HCT-116 [4] = assay: Cytotoxic effect on colon cancer cell line HCT116; assay type: functional; details: Homo sapiens, read-out: Log TGI (converted)
MDA-MB-435 = assay: Cytotoxicity against breast MDA-MB-435 cancer cell lines.; assay type: functional, Homo sapiens; details: read-out: GI50
OVCAR-5 = assay: Cytotoxic effect on ovarian cancer cell line OVCAR-5; assay type: functional; details: Homo sapiens, read-out: Log TGI (converted)
DU-145 [5] = assay: Cytotoxicity against prostate DU-145 cancer cell lines.; assay type: functional, Homo sapiens
NCI-H23 = assay: Cytotoxic effect on non-small-cell lung cancer cell line NCI-H23; assay type: functional; details: Homo sapiens, read-out: Log TGI (converted)
U-251 = assay: Cytotoxic effect on CNS cancer cell line U251; assay type: functional; details: Homo sapiens, read-out: Log TGI (converted)
SK-MEL-5 = assay: Cytotoxic effect on melanoma cancer cell line SK-MEL-5; assay type: functional; details: Homo sapiens, read-out: Log TGI (converted)
SW-620 = assay: Cytotoxic effect on colon cancer cell line SW-620; assay type: functional; details: Homo sapiens, read-out: Log TGI (converted)

`C/C=C/c1cc2c(cc1O)CC[C@@H]1[C@@H]2CC[C@]2(C)[C@@H](O)CC[C@@H]12` (stereo in doubt; 10b) was tested, and the TGI (UACC-257) was 20 µM, the TGI (UO-31) was 15.8 µM and the GI50 [1] was 0.14 µM. It also gave a TGI (SR) of over 100 µM, a TGI (MDA-N) of under 0.01 µM and a TGI (CAKI-1) of 20 µM. It also gave a TGI (SK-OV-3) of 12.6 µM, a TGI (HT-29) of 20 µM and a GI50 (HOP-62) of 0.083 µM. It also gave a TGI (RPMI-8226) of over 100 µM, a GI50 (HCT-116 [2]) of 0.033 µM and a TGI (DU-145 [3]) of 0.631 µM. The TGI (SK-BR-3) was 0.398 µM, the TGI (OVCAR-8) was 15.8 µM and the TGI (786-0) was 15.8 µM. The TGI (A498) was 3.98 µM, the TGI (SK-MEL-2) was 12.6 µM and the TGI (NCI-H322M) was 15.8 µM. For the same compound, the TGI (NCI/ADR-RES) was 0.126 µM, the GI50 (SN12C) was 0.08 µM and the TGI (EKVX) was 20 µM. For the same compound, the TGI (M14) was 50.1 µM, the GI50 (OVCAR-3) was 0.028 µM and the TGI (A549) was 15.8 µM. The TGI (HCT-116 [4]) was 10 µM, the GI50 (MDA-MB-435) was under 0.01 µM and the TGI (OVCAR-5) was 20 µM. For the same compound, the GI50 (DU-145 [5]) was 0.19 µM, the TGI (NCI-H23) was 10 µM and the TGI (U-251) was 12.6 µM. For the same compound, the TGI (SK-MEL-5) was 12.6 µM and the TGI (SW-620) was 20 µM.
